Source: patent US20100303786A1, “Stabilisation of Liquid-Formulated Factor VII(A) Polypeptides by Aldehyde-Containing Compounds” (Novo Nordisk Health Care AG, priority 2007, published 2010)
“Also recorded” adds a separate entry of the source.

Key:
[1] = molecular target: T1, rFVIIa (Homo sapiens, UniProt P08709); assay: Stability experiment: heavy chain fragmentation of rFVIIa after 4 weeks in benzaldehyde solutions; type: physicochemical; conditions: 4 weeks at 5° C.; 12.5 mg/ml rFVIIa, pH 6.5; 0, 10, 20, 40 and 80 mM benzaldehyde; FIG. 5
T1 construct: has been cleaved at the peptide bond preceding position 153
T1 sequence (P08709 213-466 limits assumed): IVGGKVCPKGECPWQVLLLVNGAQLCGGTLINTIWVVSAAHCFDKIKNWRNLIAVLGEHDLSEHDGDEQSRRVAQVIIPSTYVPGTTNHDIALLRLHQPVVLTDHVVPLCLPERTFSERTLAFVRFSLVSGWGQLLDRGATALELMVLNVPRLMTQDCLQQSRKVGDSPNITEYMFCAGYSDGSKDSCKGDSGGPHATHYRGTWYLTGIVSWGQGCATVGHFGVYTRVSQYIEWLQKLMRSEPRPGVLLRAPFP
T1 sequence (P08709 61-212 limits assumed): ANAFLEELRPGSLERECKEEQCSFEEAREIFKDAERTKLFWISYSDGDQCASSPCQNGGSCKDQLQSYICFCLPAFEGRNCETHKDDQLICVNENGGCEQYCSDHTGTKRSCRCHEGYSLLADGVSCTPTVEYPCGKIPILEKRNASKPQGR
Procedure: In the below working examples the content of heavy chain fragmentation products of Factor VIIa is determined by RP-HPLC as described in the following:
Reverse phase HPLC was run on a proprietary 4.5×250 mm butyl-bonded silica column with a particle size of 5 μm and pore size 300 Å. Column temperature: 70° C. A-buffer: 0.1% v/v trifluoracetic acid. B-buffer: 0.09% v/v trifluoracetic acid, 80% v/v acetonitrile. The column was eluted with a linear gradient from X to (X+13) % B in 30 minutes. X was adjusted so that FVIIa elutes with a retention time of approximately 26 minutes. Flow rate: 1.0 mL/min. Detection: 214 nm. Load: 25 μg FVIIa.
A stability experiment with liquid formulations containing FVIIa was performed. Conditions in all samples were 10 mM His, pH 6.5, 20 mM CaCl2, 6% sucrose, 0.5 mg/ml methionine, 12.5 mg/ml rFVIIa. 50 μl solutions with 0, 10, 20, 40 and 80 mM benzaldehyde in 500 μl cryotubes were prepared, incubated at 5° C. for 4 weeks and then frozen to −80° C. In addition, a reference sample without benzaldehyde was prepared and immediately frozen to −80° C. For analysis, all samples were thawed, diluted to 1 ml volume in 10 mM histidine, pH 5.5, and analysed for heavy chain fragmentation.

[2] = molecular target: T2, 40K-PEG-rFVIIa (Homo sapiens, UniProt P08709); assay: Stability of liquid 40K-PEG-rFVIIa formulations: heavy chain fragmentation (Assay 5); type: physicochemical; conditions: 2 months at 5° C.; 28 mM benzaldehyde or 180 mM 5-formyl-4-methylimidazole
T2 construct: has been cleaved at the peptide bond preceding position 153
T2 sequence (P08709 213-466 limits assumed): T1 sequence (P08709 213-466 limits assumed)
T2 sequence (P08709 61-212 limits assumed): T1 sequence (P08709 61-212 limits assumed)
Procedure: For the purpose of determining the content of heavy chain fragmentation products of 40K-PEG-rFVIIa, a reverse phase HPLC was run on a ACE 3 μm C4, 300 Å, 4.6×100 mm column (Advanced Chromatography Technologies, part. no. ACE-213-1046). Column temperature: 60° C. A-buffer: 0.05% v/v trifluoracetic acid. B-buffer: 0.06% v/v trifluoracetic acid, 80% v/v acetonitrile. Denaturation buffer: 6M Guanidine hydrochloride, 50 mM Tris, 5 mM calcium chloride, pH 7,5. Samples are prepared from 50 μl analysis sample+50 μl denaturation buffer+5 μl DTT+1 μl acetic acid and incubated at 60° C. for 15 min.
The column was eluted with a linear gradient from 35 to 80% B in 30 minutes. Flow rate: 0.7 mL/min. Detection: 214 nm. Load: 25 μg FVIIa. The initial content of heavy chain degradation products is subtracted from the measured content of heavy chain degradation product, i.e. the initial content of heavy chain degradation products is set to 0%. The content of heavy chain degradation products at the time x is then calculated as: […]
wherein HCDP(x) is the measured content of heavy chain degradation products at the time x, HCDP(0) is the measured initial content of heavy chain degradation products, and FVII(x) is the content of the intact Factor VII polypeptide at the time x.
A stability experiment with liquid formulations containing 40K-PEG-rFVIIa was performed. […]

[3] = molecular target: T2, 40K-PEG-rFVIIa; assay: Stability of liquid 40K-PEG-rFVIIa formulations: clot activity (one-stage coagulation assay, Assay 3); type: biochemical; conditions: 2 months at 5° C.; 28 mM benzaldehyde or 180 mM 5-formyl-4-methylimidazole
Procedure: The clot assay is used to assess the ability of Factor VIIa polypeptides to make blood clot. For this purpose, the sample to be tested is diluted in 50 mM PIPES-buffer (pH 7.5), 0.1% BSA and 40 μl is incubated with 40 μl of Factor VII deficient plasma and 80 μl of human recombinant tissue factor containing 10 mM Ca2+ and synthetic phospholipids. Coagulation times (clotting times) are measured and compared to a standard curve using a reference standard in a parallel line assay.
A stability experiment with liquid formulations containing 40K-PEG-rFVIIa was performed. The formulations had the following compositions: […]
The PEG moiety is excluded in the specification of 40K-PEG-rFVIIa concentration. pH was 6.5 in all samples. At 0, ½, 1 and 2 months, 70 μl aliquots were taken from the stability sample, diluted to 1 mg/ml 40K-PEG-rFVIIa and assayed for clot activity (Δactivity), FVIIa polypeptide fragmentation (Δfragment), dimer/2-PEG, and high molecular weight protein.

[4] = molecular target: T3, FVIIa (Homo sapiens, UniProt P08709); assay: Thermo-fluorescence (thermal shift) measurement of FVIIa denaturation temperature in the presence of aldehydes; type: physicochemical; conditions: 25 mM imidazole, pH 6.5, 20 mM CaCl2, 60 mg/ml sucrose; various aldehyde concentrations; FIG. 2
T3 construct: has been cleaved at the peptide bond preceding position 153
T3 sequence (P08709 213-466 limits assumed): T1 sequence (P08709 213-466 limits assumed)
T3 sequence (P08709 61-212 limits assumed): T1 sequence (P08709 61-212 limits assumed)
Procedure: The effect of aldehydes on Factor VIIa amidolytic activity is shown in an in vitro hydrolysis assay (20 mM imidazole, pH 6.5, 20 mM CaCl2), the results of which are illustrated in FIG. 1. A clear inhibition of amidolytic activity is observed. However, the apparent inhibition could be due to FVIIa denaturation. In order to address this issue, the denaturation temperature of FVIIa was measured in the presence of aldehydes. The measurement was performed by thermo-fluorescence, essentially as the thermal shift assay described by Lo et al., Analytical Biochemistry 332, 153-159 (2004). The denaturation temperature was determined as the point of maximum slope of the fluorescence intensity curve. The denaturation temperature is shown in FIG. 2 at various concentrations of aldehydes (25 mM imidazole, pH 6.5, 20 mM CaCl2, 60 mg/ml sucrose). […] Therefore, the inhibitory activity of these three compounds may be caused by denaturation.

Row | Compound | Fragmentation as a percentage of the total Factor VIIa content (% fragmented) [1] | Fragmentation compared to the reference formulation [2] | Loss of activity / FVIIa polypeptide stability compared to the reference formulation [3] | Effect on Factor VIIa denaturation temperature (melting point) [4]
1 | O=Cc1ccccc1 [benzaldehyde] | decreases as the concentration of benzaldehyde is increased; also recorded: much lower in the presence of benzaldehyde, particularly in concentrations above 10 mM | small reduction in fragmentation | small reduction in fragmentation and loss of activity | drops significantly at high aldehyde concentration; also recorded: affect the denaturation temperature at high concentrations
2 | Cc1nc[nH]c1C=O [5-formyl-4-methylimidazol, 5-formyl-4-methylimidazole] | – | very large reduction in fragmentation | very large improvement in FVIIa polypeptide stability | –
